Reference: PubChem BioAssay (NCI)
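Step 1: Grow cells in 96-well plates. Step 2: Expose to compound for 48 hours at 5 concentrations. Step 3: Interpolate endpoints linearly; if unreached, use highest concentration. At the TGI there is no net growth.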

Assays:
Assay in all cases: NCI anticancer screen, dose series, 48 h
OVCAR-4 ovarian = test system: OVCAR-4 ovarian
OVCAR-5 ovarian = test system: OVCAR-5 ovarian
MDA-MB-435 = test system: MDA-MB-435
NCI-H460 lung = test system: NCI-H460 lung
SR leukemia = test system: SR leukemia
SK-MEL-5 melanoma = test system: SK-MEL-5 melanoma
HOP-92 NSCLC = test system: HOP-92 NSCLC
MCF7 breast = test system: MCF7 breast
IGROV1 ovarian = test system: IGROV1 ovarian
A549 NSCLC = test system: A549 NSCLC
MDA-MB-231 breast = test system: MDA-MB-231 breast
SW-620 colon = test system: SW-620 colon
SK-MEL-28 melanoma = test system: SK-MEL-28 melanoma
NCI-H226 lung = test system: NCI-H226 lung
K-562 leukemia = test system: K-562 leukemia
SF-295 CNS = test system: SF-295 CNS
SN12C renal = test system: SN12C renal
NCI-H23 lung = test system: NCI-H23 lung
HCC-2998 colon = test system: HCC-2998 colon
COLO 205 colon = test system: COLO 205 colon
HCT-15 colon = test system: HCT-15 colon
LOX IMVI melanoma = test system: LOX IMVI melanoma
MALME-3M melanoma = test system: MALME-3M melanoma
SK-OV-3 ovarian = test system: SK-OV-3 ovarian
HT29 colon = test system: HT29 colon
SNB-75 CNS = test system: SNB-75 CNS
OVCAR-3 ovarian = test system: OVCAR-3 ovarian
T-47D breast = test system: T-47D breast
DU-145 prostate = test system: DU-145 prostate
M14 melanoma = test system: M14 melanoma
TK-10 renal = test system: TK-10 renal
MDA-N = test system: MDA-N
CAKI-1 renal = test system: CAKI-1 renal
CCRF-CEM leukemia = test system: CCRF-CEM leukemia
EKVX NSCLC = test system: EKVX NSCLC
SF-268 CNS = test system: SF-268 CNS
UO-31 renal = test system: UO-31 renal
HL-60(TB) leukemia = test system: HL-60(TB) leukemia
KM12 colon = test system: KM12 colon
HS 578T breast = test system: HS 578T breast
RPMI-8226 leukemia = test system: RPMI-8226 leukemia
HOP-62 NSCLC = test system: HOP-62 NSCLC
UACC-62 melanoma = test system: UACC-62 melanoma
U251 CNS = test system: U251 CNS
NCI/ADR-RES ovarian = test system: NCI/ADR-RES ovarian
ACHN renal = test system: ACHN renal
HCT-116 colon = test system: HCT-116 colon
SF-539 CNS = test system: SF-539 CNS
786-0 renal = test system: 786-0 renal
PC-3 prostate = test system: PC-3 prostate
OVCAR-8 ovarian = test system: OVCAR-8 ovarian
MOLT-4 leukemia = test system: MOLT-4 leukemia
SNB-19 CNS = test system: SNB-19 CNS
RXF 393 renal = test system: RXF 393 renal
UACC-257 melanoma = test system: UACC-257 melanoma
A498 renal = test system: A498 renal
NCI-H522 lung = test system: NCI-H522 lung
SK-MEL-2 melanoma = test system: SK-MEL-2 melanoma

Measured: TGI

Cc1cc(C)c(OC(=O)Nc2cccc3ccccc23)c(-c2ccccc2)c1
78.6 µM: HOP-92 NSCLC
58.4 µM: NCI-H226 lung
82.2 µM: MDA-MB-435
93 µM: CAKI-1 renal
34.6 µM: SK-MEL-5 melanoma
91.8 µM: HCC-2998 colon
47.4 µM: SNB-75 CNS
94.9 µM: ACHN renal
26.8 µM: UO-31 renal
80.1 µM: SF-268 CNS
> 100 µM: OVCAR-4 ovarian | OVCAR-5 ovarian | NCI-H460 lung | SR leukemia | MCF7 breast | IGROV1 ovarian | A549 NSCLC | MDA-MB-231 breast | SW-620 colon | SK-MEL-28 melanoma | K-562 leukemia | SF-295 CNS | SN12C renal | NCI-H23 lung | COLO 205 colon | HCT-15 colon | LOX IMVI melanoma | MALME-3M melanoma | SK-OV-3 ovarian | HT29 colon | OVCAR-3 ovarian | T-47D breast | DU-145 prostate | M14 melanoma | TK-10 renal | MDA-N | CCRF-CEM leukemia | EKVX NSCLC | HL-60(TB) leukemia | KM12 colon | HS 578T breast | RPMI-8226 leukemia | HOP-62 NSCLC | UACC-62 melanoma | U251 CNS | NCI/ADR-RES ovarian | HCT-116 colon | SF-539 CNS | 786-0 renal | PC-3 prostate | OVCAR-8 ovarian
37.3 µM: MOLT-4 leukemia

N#CC(=N)c1ncn(CCO)c1NC(=O)C(F)(F)F
> 100 µM: OVCAR-4 ovarian | OVCAR-5 ovarian | MDA-MB-435 | NCI-H460 lung | SR leukemia | SK-MEL-5 melanoma | IGROV1 ovarian | A549 NSCLC | MDA-MB-231 breast | SW-620 colon | SK-MEL-28 melanoma | SNB-19 CNS | NCI-H226 lung | K-562 leukemia | SF-295 CNS | SN12C renal | NCI-H23 lung | HCC-2998 colon | COLO 205 colon | HCT-15 colon | LOX IMVI melanoma | MALME-3M melanoma | SK-OV-3 ovarian | RXF 393 renal | HT29 colon | SNB-75 CNS | OVCAR-3 ovarian | T-47D breast | DU-145 prostate | UACC-257 melanoma | M14 melanoma | TK-10 renal | MDA-N | CAKI-1 renal | CCRF-CEM leukemia | EKVX NSCLC | SF-268 CNS | A498 renal | NCI-H522 lung | HL-60(TB) leukemia | KM12 colon | HS 578T breast | RPMI-8226 leukemia | HOP-62 NSCLC | UACC-62 melanoma | U251 CNS | NCI/ADR-RES ovarian | ACHN renal | HCT-116 colon | SF-539 CNS | 786-0 renal | SK-MEL-2 melanoma | PC-3 prostate | OVCAR-8 ovarian

Nc1nc2c(ncn2CC2CCC(CO)C2)c(=O)[nH]1 (centres undefined)
> 100 µM: OVCAR-4 ovarian | OVCAR-5 ovarian | MDA-MB-435 | SK-MEL-5 melanoma | HOP-92 NSCLC | MCF7 breast | A549 NSCLC | MDA-MB-231 breast | SW-620 colon | SK-MEL-28 melanoma | SNB-19 CNS | NCI-H226 lung | K-562 leukemia | SF-295 CNS | SN12C renal | HCC-2998 colon | COLO 205 colon | HCT-15 colon | LOX IMVI melanoma | SK-OV-3 ovarian | RXF 393 renal | SNB-75 CNS | OVCAR-3 ovarian | T-47D breast | DU-145 prostate | UACC-257 melanoma | M14 melanoma | TK-10 renal | MDA-N | CAKI-1 renal | CCRF-CEM leukemia | EKVX NSCLC | SF-268 CNS | A498 renal | UO-31 renal | KM12 colon | HS 578T breast | RPMI-8226 leukemia | HOP-62 NSCLC | UACC-62 melanoma | U251 CNS | NCI/ADR-RES ovarian | ACHN renal | HCT-116 colon | SF-539 CNS | 786-0 renal | SK-MEL-2 melanoma | PC-3 prostate
